According to patent US20230241071A1, “COMBINATION TREATMENT OF LIVER DISORDERS” (Terns Pharmaceuticals, Inc., priority 2021, published 2023):
Marks after values point to notes of the source that are not given here.

Legend:
P-glycoprotein (P-gp) = P-glycoprotein (P-gp) (Homo sapiens, UniProt P08183); format: in vitro ADME
[1] = Single-ascending dose trial of Compound 2 in healthy participants: safety and PK; format: in vivo, human; conditions: for half-life / AUC(0-inf) / Cmax / Tmax: human, plasma, oral; for AUC(0-inf) / Cmax: mean; for fe, fraction of dose excreted in urine as unmodified compound 2: mean (% CV)
Protocol: A single-ascending dose clinical trial of Compound 2 (potassium salt) was performed.
Compound 2 plasma and urine concentrations were determined using validated liquid chromatography-tandem mass spectrometry assay
Urine samples for Compound 2 concentration and PK sampling were collected pre-dose and at the following timepoints: 0-6 hours, 6-12 hours, 12-24 hours, and 24-48 hours. PK parameters were estimated via noncompartmental methods using Phoenix® WinNonlin® (Certara, LP, Princeton, N.J.). Concentrations of serum pharmacodynamic (PD) biomarkers apolipoprotein B (Apo B) and sex hormone binding globulin (SHBG) were measured using an immunoassay and serum lipids were determined using spectrophotometry.

OATP1B1 = target: T1, OATP1B1 (Homo sapiens, UniProt Q9Y6L6); assay: In vitro transporter inhibition, OATP1B1; format: in vitro ADME
T1 sequence (Q9Y6L6 1-691): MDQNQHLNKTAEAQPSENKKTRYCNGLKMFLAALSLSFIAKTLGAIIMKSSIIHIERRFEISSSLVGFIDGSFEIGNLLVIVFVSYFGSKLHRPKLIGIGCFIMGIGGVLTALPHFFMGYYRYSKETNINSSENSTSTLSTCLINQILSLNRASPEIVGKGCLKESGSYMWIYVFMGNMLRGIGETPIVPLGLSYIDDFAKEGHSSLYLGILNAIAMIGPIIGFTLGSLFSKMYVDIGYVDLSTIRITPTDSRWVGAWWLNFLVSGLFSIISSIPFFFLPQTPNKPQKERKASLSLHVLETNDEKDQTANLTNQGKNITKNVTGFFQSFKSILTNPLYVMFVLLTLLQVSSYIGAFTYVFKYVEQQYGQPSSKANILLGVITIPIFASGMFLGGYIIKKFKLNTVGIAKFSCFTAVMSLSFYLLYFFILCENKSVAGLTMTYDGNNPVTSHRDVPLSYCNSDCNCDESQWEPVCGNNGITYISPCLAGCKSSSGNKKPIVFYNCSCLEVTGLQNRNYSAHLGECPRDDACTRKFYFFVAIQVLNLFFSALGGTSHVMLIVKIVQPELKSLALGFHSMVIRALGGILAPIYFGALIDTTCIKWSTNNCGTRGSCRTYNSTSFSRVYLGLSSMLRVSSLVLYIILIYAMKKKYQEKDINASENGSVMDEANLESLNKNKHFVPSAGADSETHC

[2] = Pharmacokinetic evaluation in SD rats; format: in vivo, rat; conditions: 2.0 mg/kg intragastric
Protocol: Drug Preparation: a certain amount of the drug was taken and added into a 2% Klucel LF+0.1% Tween 80 aqueous solution, to prepare a clear solution or a uniform suspension.
Dosage: SD rats were fasted overnight and given the drug by intragastric infusion at an administrated dose of 2 mg/kg and an administrated volume of 10 mL/kg each.
Operation: rats were dosed by intragastric infusion with the compounds. […] The heparinized sample tubes were then stored at −20° C., and the rats were allowed to eat food 2 h after the dosage.
Determination of contents of the compounds to be tested in the plasma of rats after intragastric infusion of the drugs at different concentrations: the plasma samples were thawed at room temperature, 50 μL each was taken and added into 130 μL of an internal standard working solution (1000 ng/mL, acetonitrile, tolbutamide), and the mixture was whirled for about 1 min and then centrifugated at 4° C. and 13000 rpm for 10 min. 50 μL of the supernatant was taken and mixed with 100 μL of 50% acetonitrile water, and then introduced for LC/MS/MS analysis.

OATP1B3 = target: T2, OATP1B3 (Homo sapiens, UniProt Q9NPD5); assay: In vitro transporter inhibition, OATP1B3; format: in vitro ADME
T2 sequence (Q9NPD5 1-702): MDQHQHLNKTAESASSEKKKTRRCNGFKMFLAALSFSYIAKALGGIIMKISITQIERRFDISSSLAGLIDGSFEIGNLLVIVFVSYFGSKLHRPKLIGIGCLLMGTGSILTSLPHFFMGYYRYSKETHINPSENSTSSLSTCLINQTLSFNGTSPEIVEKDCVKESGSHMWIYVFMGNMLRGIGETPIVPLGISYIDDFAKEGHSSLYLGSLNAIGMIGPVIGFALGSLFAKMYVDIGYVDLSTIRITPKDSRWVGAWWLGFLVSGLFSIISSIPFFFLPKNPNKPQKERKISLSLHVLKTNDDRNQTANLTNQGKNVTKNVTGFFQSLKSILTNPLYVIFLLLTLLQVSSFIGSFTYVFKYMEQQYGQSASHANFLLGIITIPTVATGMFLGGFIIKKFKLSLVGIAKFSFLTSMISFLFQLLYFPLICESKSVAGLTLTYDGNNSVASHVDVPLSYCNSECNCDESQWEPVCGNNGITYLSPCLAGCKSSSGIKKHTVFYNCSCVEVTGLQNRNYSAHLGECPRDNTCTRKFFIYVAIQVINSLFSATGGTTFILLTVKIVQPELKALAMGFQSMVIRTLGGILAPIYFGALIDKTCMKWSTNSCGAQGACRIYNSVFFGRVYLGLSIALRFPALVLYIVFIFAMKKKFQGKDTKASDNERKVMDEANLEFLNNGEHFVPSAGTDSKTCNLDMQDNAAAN

[3] = single dose 3 mg, fasted (n = 6)
[4] = single dose 10 mg, fasted (n = 6)
[5] = single dose 30 mg, fasted (n = 6)
[6] = single dose 60 mg, fasted (n = 6)

Chain of P-glycoprotein (P-gp) (P08183 whole entry): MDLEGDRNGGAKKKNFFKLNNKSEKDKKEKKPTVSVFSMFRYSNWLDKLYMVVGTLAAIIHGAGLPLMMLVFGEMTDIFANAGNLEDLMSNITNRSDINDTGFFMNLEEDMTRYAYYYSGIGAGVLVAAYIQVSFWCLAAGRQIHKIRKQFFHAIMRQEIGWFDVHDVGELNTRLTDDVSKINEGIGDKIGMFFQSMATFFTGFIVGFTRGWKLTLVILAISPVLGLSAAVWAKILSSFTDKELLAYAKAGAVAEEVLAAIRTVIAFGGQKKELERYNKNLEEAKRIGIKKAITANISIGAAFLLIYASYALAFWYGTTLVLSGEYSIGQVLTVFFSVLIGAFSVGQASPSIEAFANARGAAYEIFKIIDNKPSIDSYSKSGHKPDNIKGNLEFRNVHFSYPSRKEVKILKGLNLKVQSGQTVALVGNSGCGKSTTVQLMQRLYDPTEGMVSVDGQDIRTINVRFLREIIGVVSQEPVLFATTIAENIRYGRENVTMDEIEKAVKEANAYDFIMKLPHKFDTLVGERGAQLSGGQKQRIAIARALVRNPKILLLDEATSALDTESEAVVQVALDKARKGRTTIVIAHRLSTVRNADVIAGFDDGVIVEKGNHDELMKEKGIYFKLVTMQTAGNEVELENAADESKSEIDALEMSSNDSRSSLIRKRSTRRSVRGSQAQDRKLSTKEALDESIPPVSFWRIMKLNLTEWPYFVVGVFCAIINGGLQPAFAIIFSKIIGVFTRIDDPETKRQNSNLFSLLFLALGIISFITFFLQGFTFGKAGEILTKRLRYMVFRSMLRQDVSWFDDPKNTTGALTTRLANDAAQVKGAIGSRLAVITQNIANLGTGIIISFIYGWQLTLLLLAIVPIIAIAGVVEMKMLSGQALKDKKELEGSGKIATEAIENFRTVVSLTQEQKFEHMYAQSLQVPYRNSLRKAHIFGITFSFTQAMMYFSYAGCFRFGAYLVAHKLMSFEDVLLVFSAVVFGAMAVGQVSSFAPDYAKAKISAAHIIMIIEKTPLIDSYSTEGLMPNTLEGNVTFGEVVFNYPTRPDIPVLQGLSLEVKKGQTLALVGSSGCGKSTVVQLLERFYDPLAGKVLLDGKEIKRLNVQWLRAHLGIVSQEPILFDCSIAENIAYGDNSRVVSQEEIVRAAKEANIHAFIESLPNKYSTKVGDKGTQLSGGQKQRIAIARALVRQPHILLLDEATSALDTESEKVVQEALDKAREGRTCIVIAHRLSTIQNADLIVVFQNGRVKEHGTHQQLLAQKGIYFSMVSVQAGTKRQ

Compound `Cn1cc(C(=O)O)c2ccc(N3CCC(OCc4c(-c5c(Cl)cccc5Cl)noc4C4CC4)CC3)cc21` [Compound 3] has an IC50 (P-glycoprotein (P-gp)) of 3920 nM.

In the case of `N#Cc1nn(-c2cc(Cl)c(Oc3n[nH]c(=O)c4ccccc34)c(Cl)c2)c(=O)[nH]c1=O` [Compound 2, 2-(3,5-dichloro-4-((4-oxo-3,4-dihydrophthalazin-1-yl)oxy)phenyl)-3,5-dioxo-2,3,4,5-tetrahydro-1,2,4-triazine-6-carbonitrile], the heart rates ([1]; 24 hours after single dose) is reported as “remained stable and within the normal range”, the renal excretion ([1]; all single doses) is reported as “Minimal renal excretion” and the half-life ([1]; 3 mg, single dose 3 mg, fasted (n = 6), median (min-max), read-out: t1/2 (converted)) is reported as 17.3 h. For the same compound, the half-life ([1]; 10 mg, single dose 10 mg, fasted (n = 6), median (min-max), read-out: t1/2 (converted)) was 14.4 h, the half-life ([1]; 30 mg, single dose 30 mg, fasted (n = 6), median (min-max), read-out: t1/2 (converted)) was 15.7 h and the half-life ([1]; 60 mg, single dose 60 mg, fasted (n = 6), median (min-max), read-out: t1/2 (converted)) was 13.8 h. It also gave a half-life ([1]; single dose 3-60 mg, read-out: half-life (median) across single dose levels) of 13.8 to 17.3 h, an AUC(0-inf) [1, 3] of 4060 ng·h/mL and a Cmax [1, 3] of 217 ng/mL. The Tmax ([1]; single dose 3 mg, fasted (n = 6), median (min-max)) was 4 h, the AUC(0-inf) [1, 4] was 8110 ng·h/mL and the Cmax [1, 4] was 614 ng/mL. For the same compound, the Tmax ([1]; single dose 10 mg, fasted (n = 6), median (min-max)) was 4 h, the AUC(0-inf) [1, 5] was 33000 ng·h/mL and the Cmax [1, 5] was 1800 ng/mL. It also gave a Tmax ([1]; single dose 30 mg, fasted (n = 6), median (min-max)) of 4 h, an AUC(0-inf) [1, 6] of 50000 ng·h/mL and a Cmax [1, 6] of 3300 ng/mL. The Tmax ([1]; single dose 60 mg, fasted (n = 6), median (min-max)) was 4 h, the “overall safety and tolerability” value ([1]; single ascending doses up to 60 mg) was “safe and well-tolerated” and the “AEs by relationship to drug: Not related” value ([1]; single dose 3 mg (n = 6)) was 2 (33.3%). The “AEs by relationship to drug: Possibly related” value (shortened to “AEs … Possibly related”) ([1]; single dose 3 mg (n = 6)) was 0, the “AEs by relationship to drug: Related” value ([1]; single dose 3 mg (n = 6)) was 0 and the “AEs by relationship to drug: Unlikely related” value (from here on “AEs … Unlikely related”) ([1]; single dose 3 mg (n = 6)) was 0. For the same compound, the “Any AE, all CTCAE grades” value ([1]; single dose 3 mg (n = 6)) was 2 (33.3%), the “CTCAE Grade 1 AEs” value ([1]; single dose 3 mg (n = 6)) was 0 and the “CTCAE Grade 2 AEs” value ([1]; single dose 3 mg (n = 6)) was 0. The “CTCAE Grade 3 or higher AEs” value ([1]; single dose 3 mg (n = 6)) was 0, the “Serious AEs” value ([1]; single dose 3 mg (n = 6)) was 0 and the “fe, fraction of dose excreted in urine as unmodified compound 2” value (“fe, fraction of dose excreted in urine” for short) [1, 3] was 2.95 (62) % dose, urine. For the same compound, the “AEs by relationship to drug: Not related” value ([1]; single dose 10 mg (n = 6)) was 0, the “AEs … Possibly related” value ([1]; single dose 10 mg (n = 6)) was 0 and the “AEs by relationship to drug: Related” value ([1]; single dose 10 mg (n = 6)) was 0. The “AEs … Unlikely related” value ([1]; single dose 10 mg (n = 6)) was 0, the “Any AE, all CTCAE grades” value ([1]; single dose 10 mg (n = 6)) was 0 and the “CTCAE Grade 1 AEs” value ([1]; single dose 10 mg (n = 6)) was 0. The “CTCAE Grade 2 AEs” value ([1]; single dose 10 mg (n = 6)) was 0, the “CTCAE Grade 3 or higher AEs” value ([1]; single dose 10 mg (n = 6)) was 0 and the “Serious AEs” value ([1]; single dose 10 mg (n = 6)) was 0. The “fe, fraction of dose excreted in urine” value [1, 4] was 2.05 (74) % dose, urine, the “AEs by relationship to drug: Not related” value ([1]; single dose 30 mg (n = 6)) was 1 (16.7%) and the “AEs … Possibly related” value ([1]; single dose 30 mg (n = 6)) was 1 (16.7%)*. The “AEs by relationship to drug: Related” value ([1]; single dose 30 mg (n = 6)) was 0, the “AEs … Unlikely related” value ([1]; single dose 30 mg (n = 6)) was 0 and the “Any AE, all CTCAE grades” value ([1]; single dose 30 mg (n = 6)) was 2 (33.3%). The “CTCAE Grade 1 AEs” value ([1]; single dose 30 mg (n = 6)) was 1 (16.7%), the “CTCAE Grade 2 AEs” value ([1]; single dose 30 mg (n = 6)) was 1 (16.7%) and the “CTCAE Grade 3 or higher AEs” value ([1]; single dose 30 mg (n = 6)) was 0. The “Serious AEs” value ([1]; single dose 30 mg (n = 6)) was 0, the “fe, fraction of dose excreted in urine” value [1, 5] was 1.78 (35) % dose, urine and the “AEs by relationship to drug: Not related” value ([1]; single dose 60 mg (n = 6)) was 0. For the same compound, the “AEs … Possibly related” value ([1]; single dose 60 mg (n = 6)) was 0, the “AEs by relationship to drug: Related” value ([1]; single dose 60 mg (n = 6)) was 0 and the “AEs … Unlikely related” value ([1]; single dose 60 mg (n = 6)) was 0. For the same compound, the “Any AE, all CTCAE grades” value ([1]; single dose 60 mg (n = 6)) was 0, the “CTCAE Grade 1 AEs” value ([1]; single dose 60 mg (n = 6)) was 0 and the “CTCAE Grade 2 AEs” value ([1]; single dose 60 mg (n = 6)) was 0. For the same compound, the “CTCAE Grade 3 or higher AEs” value ([1]; single dose 60 mg (n = 6)) was 0, the “Serious AEs” value ([1]; single dose 60 mg (n = 6)) was 0 and the “fe, fraction of dose excreted in urine” value [1, 6] was 1.53 (53) % dose, urine. For the same compound, the “TSH, free T3, and free T4 levels” value ([1]; single dose 3-60 mg) was “remained within the normal range”, the “cardiac related AEs” value ([1]; single dose 3-60 mg) was “No cardiac related AEs” and the “exposures (AUC, Cmax), dose proportionality” value ([1]; single dose 3-60 mg) was “approximately dose-proportional”. For the same compound, the “half-life (median) across single dose levels” value ([1]; single dose 3-60 mg) was > 13 h, the “severity of adverse events” value ([1]; single dose 3-60 mg) was “mild or moderate” and the “subjects with increases in ALT more than 2-times greater than ULN” value ([1]; single dose 3-60 mg) was “No subjects”. The IC50 (OATP1B1) was 2010 nM, the Curve area [2] was 24790 ± 3704 ng·h/mL and the “Peak blood drug concentration” value [2] was 2007 ± 106 ng/mL. For the same compound, the Time to peak [2] was 4.67 ± 1.15 h, the half-life ([2]; male, rat, plasma, po) was 4.56 ± 0.42 h and the IC50 (OATP1B3) was 710 nM.
